{"source": "PubChem BioAssay AID2060626", "about": "(Molecular Pharmacology Branch, DTP, NCI, 2025)", "test_system": "168753-222-R-J1-PDC complex spheroid viability", "assay": "Anticancer human tumor 168753-222-R-J1-PDC patient-derived bladder carcinoma cell line growth inhibition [CLK]", "settings": "for viability, T/C: stronger effect = lower value", "text": "A high-throughput screen of multi-cell type tumor spheroids was designed to identify active combinations of […] and targeted small molecules. Complex spheroids include a stromal component modeled by human endothelial cells (HUVEC) and fibroblasts modeled by human mesenchymal stem cells (MSCs). The concentration ranges selected for each drug and investigational agent were based upon clinically achievable concentrations if the clinical Cmax of the agent was known.\nCompounds. The drugs and investigational agents: cirtuvivint (SM08502; NSC835563), CC-671 (NSC850746), vemurafenib (NSC761431), tapotoclax (NSC804041), sotorasib (NSC818433), adagrasib (NSC831453), MRTX-1133 (NSC836407), BAY2416964 (NSC825713), copanlisib (NSC816437), inavolisib (NSC800729), abemaciclib (NSC768073), osimertinib (NSC779217), entinostat (NSC756642), eltanexor (KPT-8602, NSC794443), venetoclax (NSC766270), ceralasertib (NSC777638), bortezomib (NSC756655), olaparib (NSC753686), talazoparib (NSC767125), alisertib (NSC759677), peposertib (NSC802822), gemcitabine (NSC613327), 5-fluorouracil (NSC19893), SN-38 (NSC673596), oxaliplatin (NSC266046), paclitaxel (NSC125973), and doxorubicin (NSC123127), were obtained from the National Cancer Institute (NCI) Developmental Therapeutics Program Chemical Repository. The FDA-approved anticancer drug set is available from the Developmental Therapeutics Program at https://dtp.cancer.gov/organization/dscb/obtaining/available plates.htm. […] The stock solutions were prepared in dimethyl sulfoxide (DMSO, Sigma-Aldrich, St. Louis, MO, cat. D2650), except for the platinum complexes which were prepared in saline (Quality Biological, Gaithersburg, MD, cat. 114-055-101), at 800-fold the tested concentration and stored at -70 degrees C prior to their use. All drugs and investigational agents were tested over a range starting from a high concentration at or near the clinical Cmax and decreasing in half-log increments. If the clinical Cmax for an agent had not been determined, the highest concentration tested was 10 microM.\nCell Culture. All cells were maintained in an incubator at 37 degrees C and 5% CO2 with 95% humidity. The PDC lines were cultured according to standard operating procedures established by the NCI PDMR. Briefly, all PDCs were thawed and cultured in Matrigel-coated flasks prepared with a working solution of 1X Ham's F-12 nutrient mix, without supplementation (Invitrogen, Waltham, MA, cat. 11765054), 100 U/mL penicillin-streptomycin (Invitrogen, cat. 15140122), and 2.5% Matrigel (Corning Inc., Corning, NY, cat. 354248) for the first three passages. The 947758-054-R-J2-PDC line was cultured in 6B/Colon 1A media, which includes advanced DMEM/F-12 (Thermo Fisher Scientific, cat. 12634028), 10 mM HEPES (Thermo Fisher Scientific, cat. 15630080), 1X GlutaMAX supplement (Thermo Fisher Scientific, cat. 35050061), 0.1 mg/mL primocin (InvivoGen, cat. ant-pm-2), 10% defined fetal bovine serum, heat inactivated (HyClone Laboratories Inc., cat. SH30070.03HI), 1.25 mM N-Acetyl-L-cysteine (Sigma-Aldrich, cat. A9165), 10 mM nicotinamide (Sigma-Aldrich, cat. N0636), 1X B-27 supplement (Thermo Fisher Scientific, cat. 17504044), 1X N-2 supplement (Thermo Fisher Scientific, cat. 17502048), and 10 microM Y-27632 dihydrochloride (Tocris Bioscience, cat. 1254). The 876862-298-R-J1-PDC was cultured in 6E media, which includes all 6B/Colon 1A media components plus 50% L-WRN conditioned media (ATCC, cat. CRL-3276), 50 ng/mL recombinant human EGF recombinant protein (hEGF; Thermo Fisher Scientific, cat. PHG0311), 10 ng/mL recombinant human fibroblast growth factor 10 (hGFG-10; PeproTech, cat. 100-26), 1 ng/mL recombinant human fibroblast growth factor 2 (hFGF-2; PeproTech, cat. 100-18B), and 1 µM prostaglandin E2 (PGE2; Tocris, cat. 2296). The 227483-062-R1-J1-PDC line was cultured in Panc media, containing all 6E components except hFGF-2, with the addition of 500 nM SB-431542 (Selleckchem, cat. S1067) and 10 nM gastrin (Tocris, cat. 3006). […]", "note": "Values joined by “and” are separate entries in the source; they are usually repeats but may differ in a detail not shown here. Equal values may be shown once.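 Also: viability measured after seven days of drug exposure.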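 For viability, T/C in this document: luminescence signal used as surrogate for viable cell amount; 100% = DMSO vehicle control wells.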", "data": [{"smiles": "CN1CCN(c2cc(C(=O)Nc3cc4cc(-c5cnn(C)c5)ccc4cn3)ccn2)CC1", "values": [{"measurement": "viability, T/C", "setting": "compound 0.316 µM", "result": "10.2% [middle of 12 runs]"}, {"measurement": "viability, T/C", "setting": "compound 1 µM", "result": "1.32% [middle of 11 runs]"}, {"measurement": "viability, T/C", "setting": "compound 3.16 µM", "result": "0.5% [middle of 11 runs]"}, {"measurement": "viability, T/C", "setting": "compound 10 µM", "result": "0.32% [middle of 10 runs]"}, {"measurement": "IC50", "setting": "compound alone, run of 07/31/2023", "result": "102 nM [middle of 12 runs]"}]}, {"smiles": "COc1ccc([C@@H](O)c2cc(-c3ncnc4cc(N5CCOCC5)ccc34)c(F)cc2Cl)nn1", "values": [{"measurement": "viability, T/C", "setting": "compound 0.0316 µM", "result": "90% and 106%"}, {"measurement": "viability, T/C", "setting": "compound 0.1 µM", "result": "95.4% and 97.4%"}, {"measurement": "viability, T/C", "setting": "compound 0.316 µM", "result": "40.8% and 95.7%"}, {"measurement": "viability, T/C", "setting": "compound 1 µM", "result": "26.3% and 80.3%"}, {"measurement": "viability, T/C", "setting": "compound 3.16 µM", "result": "13.1% and 37.1%"}, {"measurement": "viability, T/C", "setting": "compound 10 µM", "result": "7.58% and 16.6%"}, {"measurement": "IC50", "setting": "curve of compound", "result": "258 nM and 2250 nM"}]}, {"smiles": "COc1cccc2c1C(=O)c1c(O)c3c(c(O)c1C2=O)CC(O)(C(=O)CO)CC3OC1CC(N)C(O)C(C)O1", "note": "(stereo unspecified)", "values": [{"measurement": "viability, T/C", "setting": "compound 0.0316 µM", "result": "49.4% and 85.7%"}, {"measurement": "viability, T/C", "setting": "compound 0.1 µM", "result": "38.7% and 47.7%"}, {"measurement": "viability, T/C", "setting": "compound 0.316 µM", "result": "28.3% and 46.2%"}, {"measurement": "viability, T/C", "setting": "compound 1 µM", "result": "7.17% and 21%"}, {"measurement": "viability, T/C", "setting": "compound 3.16 µM", "result": "7.34% and 13.8%"}, {"measurement": "viability, T/C", "setting": "compound 10 µM", "result": "0.22% and 0.15%"}, {"measurement": "IC50", "setting": "curve of compound", "result": "< 31.6 nM and 159 nM"}]}, {"smiles": "C=CC(=O)N1CCN(c2nc(=O)n(-c3c(C)ccnc3C(C)C)c3nc(-c4c(O)cccc4F)c(F)cc23)C(C)C1", "note": "(stereo unspecified) + CN1CCN(c2cc(C(=O)Nc3cc4cc(-c5cnn(C)c5)ccc4cn3)ccn2)CC1", "values": [{"measurement": "IC50", "setting": "curve of first compound, second compound 0.0316 µM", "result": "> 10000", "unit": "nM"}, {"measurement": "IC50", "setting": "curve of first compound, second compound 0.1 µM", "result": 3770, "unit": "nM"}, {"measurement": "IC50", "setting": "curve of first compound, second compound 0.316 µM", "result": "< 31.6", "unit": "nM"}, {"measurement": "IC50", "setting": "curve of first compound, second compound 1 µM", "result": "< 31.6", "unit": "nM"}, {"measurement": "IC50", "setting": "curve of first compound, second compound 3.16 µM", "result": "< 31.6", "unit": "nM"}, {"measurement": "IC50", "setting": "curve of first compound, second compound 10 µM", "result": "< 31.6", "unit": "nM"}, {"measurement": "viability, T/C", "setting": "second compound 0.0316 µM, first compound 0.0316 µM", "result": 96.6, "unit": "%"}, {"measurement": "viability, T/C", "setting": "second compound 0.0316 µM, first compound 0.1 µM", "result": 107, "unit": "%"}, {"measurement": "viability, T/C", "setting": "second compound 0.0316 µM, first compound 0.316 µM", "result": 111, "unit": "%"}, {"measurement": "viability, T/C", "setting": "second compound 0.0316 µM, first compound 1 µM", "result": 133, "unit": "%"}, {"measurement": "viability, T/C", "setting": "second compound 0.0316 µM, first compound 3.16 µM", "result": 82.8, "unit": "%"}, {"measurement": "viability, T/C", "setting": "second compound 0.0316 µM, first compound 10 µM", "result": 100, "unit": "%"}, {"measurement": "viability, T/C", "setting": "second compound 0.1 µM, first compound 0.0316 µM", "result": 79.4, "unit": "%"}, {"measurement": "viability, T/C", "setting": "second compound 0.1 µM, first compound 0.1 µM", "result": 84.5, "unit": "%"}, {"measurement": "viability, T/C", "setting": "second compound 0.1 µM, first compound 0.316 µM", "result": 55.5, "unit": "%"}, {"measurement": "viability, T/C", "setting": "second compound 0.1 µM, first compound 1 µM", "result": 75.3, "unit": "%"}, {"measurement": "viability, T/C", "setting": "second compound 0.1 µM, first compound 3.16 µM", "result": 52.5, "unit": "%"}, {"measurement": "viability, T/C", "setting": "second compound 0.1 µM, first compound 10 µM", "result": 32.1, "unit": "%"}, {"measurement": "viability, T/C", "setting": "second compound 0.316 µM, first compound 0.0316 µM", "result": 16.2, "unit": "%"}, {"measurement": "viability, T/C", "setting": "second compound 0.316 µM, first compound 0.1 µM", "result": 13.4, "unit": "%"}, {"measurement": "viability, T/C", "setting": "second compound 0.316 µM, first compound 0.316 µM", "result": 14.2, "unit": "%"}, {"measurement": "viability, T/C", "setting": "second compound 0.316 µM, first compound 1 µM", "result": 13.8, "unit": "%"}, {"measurement": "viability, T/C", "setting": "second compound 0.316 µM, first compound 3.16 µM", "result": 12.8, "unit": "%"}, {"measurement": "viability, T/C", "setting": "second compound 0.316 µM, first compound 10 µM", "result": 15.2, "unit": "%"}, {"measurement": "viability, T/C", "setting": "second compound 1 µM, first compound 0.0316 µM", "result": 0.29, "unit": "%"}, {"measurement": "viability, T/C", "setting": "second compound 1 µM, first compound 0.1 µM", "result": 0.48, "unit": "%"}, {"measurement": "viability, T/C", "setting": "second compound 1 µM, first compound 0.316 µM", "result": 1.79, "unit": "%"}, {"measurement": "viability, T/C", "setting": "second compound 1 µM, first compound 1 µM", "result": 0.27, "unit": "%"}, {"measurement": "viability, T/C", "setting": "second compound 1 µM, first compound 3.16 µM", "result": 0.3, "unit": "%"}, {"measurement": "viability, T/C", "setting": "second compound 1 µM, first compound 10 µM", "result": 0.2, "unit": "%"}, {"measurement": "viability, T/C", "setting": "second compound 3.16 µM, first compound 0.0316 µM", "result": 1.43, "unit": "%"}, {"measurement": "viability, T/C", "setting": "second compound 3.16 µM, first compound 0.1 µM", "result": 0.16, "unit": "%"}, {"measurement": "viability, T/C", "setting": "second compound 3.16 µM, first compound 0.316 µM", "result": 0.55, "unit": "%"}, {"measurement": "viability, T/C", "setting": "second compound 3.16 µM, first compound 1 µM", "result": 0.11, "unit": "%"}, {"measurement": "viability, T/C", "setting": "second compound 3.16 µM, first compound 3.16 µM", "result": 1.89, "unit": "%"}, {"measurement": "viability, T/C", "setting": "second compound 3.16 µM, first compound 10 µM", "result": 0.22, "unit": "%"}, {"measurement": "viability, T/C", "setting": "second compound 10 µM, first compound 0.0316 µM", "result": 0.21, "unit": "%"}, {"measurement": "viability, T/C", "setting": "second compound 10 µM, first compound 0.1 µM", "result": 0.2, "unit": "%"}, {"measurement": "viability, T/C", "setting": "second compound 10 µM, first compound 0.316 µM", "result": 0.6, "unit": "%"}, {"measurement": "viability, T/C", "setting": "second compound 10 µM, first compound 1 µM", "result": 0.18, "unit": "%"}, {"measurement": "viability, T/C", "setting": "second compound 10 µM, first compound 3.16 µM", "result": 0.4, "unit": "%"}, {"measurement": "viability, T/C", "setting": "second compound 10 µM, first compound 10 µM", "result": 0.57, "unit": "%"}]}]}
